# From publication PMC5610480, “Original Chemical Series of Pyrimidine Biosynthesis Inhibitors That Boost the Antiviral Interferon Response” (Antimicrobial Agents and Chemotherapy, 2017)
# Like-named read-outs stand apart in the source and are kept apart here.
# Columns and labels:
# in vitro = conditions: human
# MV-Luc [1] = assay: microbe, parasite or virus in culture; format: cell-based, measles virus (MV); conditions: for IC50: Measles morbillivirus, HEK-293T, 24 h, read-out: IC50 (μM), inhibition of MV-Luc; for antiviral potency relative to DD363: MV-Luc IC50, fold higher than for DD363
# [2] = system: ISRE-luciferase reporter gene; assay: ISRE-luciferase induction in STING-37 reporter cells; conditions: STING-37 cells, 24 h, increasing doses
# IFN-β = assay: RT-qPCR gene expression in STING-37 cells: IFN-β; format: cell-based, human; conditions: 30 μM, 24 h, DMSO None = 1
# Procedure: (§1) To further document the consequences of DD778 treatment on the cellular response to ssRNA, mRNA levels for RIG-I, MDA5, oligoadenylate synthase-like protein (OASL), IFN-α4, IFN-β, IFN-λ1, and IFN-λ2/3 were determined by reverse transcription-quantitative PCR (RT-qPCR). […] Furthermore, the effects of DD778 on the expression of these genes could be reversed by the addition of uridine in culture medium. […] In parallel, we measured in culture supernatants the concentrations of IFN-β, IFN-λ1, IFN-λ2/3, and interferon-inducible protein of 10 kDa (IP-10), which is a well-characterized IFN-inducible chemokine (Fig. 7C). […] This illustrates an original mechanism by which cells can communicate with neighbors on their metabolic status.
# (§2) Upper images correspond to representative experiments.
# MDA5 [3] = assay: Western blotting of MDA5 in STING-37 cells
# IFN-λ1 = assay: RT-qPCR gene expression in STING-37 cells: IFN-λ1; format: cell-based, human; conditions: 30 μM, 24 h, DMSO None = 1
# Procedure: as §1, §2
# [4] = system: CHIKV expressing Renilla luciferase; assay: microbe, parasite or virus in culture; format: cell-based; conditions: Chikungunya virus, HEK-293T, 24 h, read-out: IC50, CHIKV Renilla luciferase
# OASL = assay: RT-qPCR gene expression in STING-37 cells: OASL; format: cell-based, human; conditions: 30 μM, 24 h, DMSO None = 1
# Procedure: as §1, §2
# RIG-I [5] = assay: Western blotting of RIG-I in STING-37 cells
# IFN biological activity = IFN biological activity of culture supernatants on fresh STING-37 cells; conditions: no ssRNA, supernatants at 48 h
# [6] = system: ISRE-luciferase reporter gene; assay: ISRE-luciferase response to MV infection in STING-37 cells; conditions: 30 μM added 9 h after infection, read 16 h later
# MV-Luc [7] = assay: Complementation of MV-Luc inhibition with uridine, DHO or orotate; conditions: 24 h
# RIG-I [8] = assay: RT-qPCR gene expression in STING-37 cells: RIG-I; format: cell-based, human; conditions: 30 μM, 24 h, DMSO None = 1
# Procedure: as §1, §2
# [9] = system: de novo pyrimidine biosynthesis; assay: Intracellular nucleoside/nucleotide and UDP-sugar levels by HPLC; format: cell-based, human
# IFN-λ2/3 = assay: RT-qPCR gene expression in STING-37 cells: IFN-λ2/3; format: cell-based, human; conditions: 30 μM, 24 h, DMSO None = 1
# Procedure: as §1, §2
# MDA5 [10] = assay: RT-qPCR gene expression in STING-37 cells: MDA5; format: cell-based, human; conditions: 30 μM, 24 h, DMSO None = 1
# Procedure: as §1, §2
# [11] = system: IFN-β, IFN-λ1, IFN-λ2/3, and IP-10; assay: Cytokines in culture supernatants, LEGENDplex
# IFN-α4 = assay: RT-qPCR gene expression in STING-37 cells: IFN-α4; format: cell-based, human; conditions: 30 μM, 24 h, DMSO None = 1
# Procedure: as §1, §2
# DHODH = system: DHODH; parameters: method as in PMID 20183850; conditions: read-out: IC50 on the recombinant enzyme; cited from earlier work
# MV-Luc [12] = system: MV-Luc; parameters: method as in PMID 25558988; conditions: HEK-293T cells; previously reported ref 9; read-out: IC50, inhibition of MV-Luc; cited from earlier work
# [13] = MV MOI 2, 30 μM added at 9 h, 39 h more
smiles,measurement,setting,value
O=c1oc2ccccc2c2c1C(c1cccc(Cl)c1)C([N+](=O)[O-])O2 (centres unmarked) [DD311],CC50 at 24 h,in vitro,> 50 µM
same,IC50,MV-Luc [1],47 ± 4 µM
"O=C1CCCc2occ(-c3cccc(Cl)c3)c21 [DD264, reference compound]",CC50 at 24 h,in vitro,> 80 µM
same,IC50,MV-Luc [1],15 ± 2 µM
Cc1cc2oc(=O)c3c(c2cc1C)OC([N+](=O)[O-])C3c1c[nH]c2ccccc12 (centres unmarked) [DD775],CC50 at 24 h,in vitro,> 50 µM
same,IC50,MV-Luc [1],1.7 ± 0.4 µM
O=c1oc2ccc(Cl)cc2c2c1C(c1c[nH]c3ccc(Br)cc13)C([N+](=O)[O-])O2 (centres unmarked) [DD783],CC50 at 24 h,in vitro,> 50 µM
same,IC50,MV-Luc [1],42 ± 7 µM
O=c1oc2ccc(Cl)cc2c2c1C(c1c[nH]c3ccccc13)C([N+](=O)[O-])O2 (centres unmarked) [DD771],CC50 at 24 h,in vitro,> 50 µM
same,antiviral potency relative to DD363,MV-Luc [1],2- to 9 fold
same,IC50,MV-Luc [1],1.7 ± 0.4 µM
O=c1oc2ccc(F)cc2c2c1C(c1c[nH]c3ccccc13)C([N+](=O)[O-])O2 (centres unmarked) [DD776],CC50 at 24 h,in vitro,> 50 µM
same,antiviral potency relative to DD363,MV-Luc [1],2- to 9 fold
same,IC50,MV-Luc [1],3.8 ± 0.8 µM
Cc1ccc2oc(=O)c3c(c2c1)OC([N+](=O)[O-])C3c1c[nH]c2ccc(Br)cc12 (centres unmarked) [DD784],CC50 at 24 h,in vitro,> 50 µM
same,IC50,MV-Luc [1],40 ± 7 µM
O=C1C(=O)c2ccccc2C2=C1C(c1c[nH]c3ccccc13)C([N+](=O)[O-])O2 (centres unmarked) [DD785],CC50 at 24 h,in vitro,> 50 µM
same,IC50,MV-Luc [1],> 50 µM
Cc1cc2c(c(=O)o1)C(c1c[nH]c3ccccc13)C([N+](=O)[O-])O2 (centres unmarked) [DD786],CC50 at 24 h,in vitro,> 50 µM
same,induction of the ISRE-luciferase gene (compound alone),[2],unable to do so
same,IC50,MV-Luc [1],> 50 µM
O=c1oc2ccc(Cl)cc2c2c1C(c1c[nH]c3ccccc13)CO2 (centres unmarked) [JP46],CC50 at 24 h,in vitro,50 ± 8 µM
same,decrease of antiviral potency relative to DD771,MV-Luc [1]; MV-Luc IC50,9 fold
same,IC50,MV-Luc [1],16 ± 4 µM
O=c1oc2ccc(Br)cc2c2c1C(c1c[nH]c3ccccc13)C([N+](=O)[O-])O2 (centres unmarked) [JP52],CC50 at 24 h,in vitro,> 50 µM
same,antiviral potency relative to DD363,MV-Luc [1],2- to 9 fold
same,IC50,MV-Luc [1],1.2 ± 0.2 µM
CCc1ccc2oc(=O)c3c(c2c1)OC([N+](=O)[O-])C3c1c[nH]c2ccccc12 (centres unmarked) [JP49],CC50 at 24 h,in vitro,> 50 µM
same,antiviral potency relative to DD363,MV-Luc [1],2- to 9 fold
same,IC50,MV-Luc [1],5.3 ± 1.1 µM
Cc1ccc2oc(=O)c3c(c2c1)OC([N+](=O)[O-])C3c1c[nH]c2ccccc12 (centres unmarked) [DD778],CC50 at 24 h,in vitro,207 ± 20 µM
same,IFN-β expression level (RT-qPCR),IFN-β; ssRNA (60 ng/well),4±3
same,IFN-β expression level (RT-qPCR),IFN-β; ssRNA (120 ng/well),17±5
same,IFN-β expression level (RT-qPCR),IFN-β; ssRNA: None,1.5±0.8
same,"MDA5 protein expression, ssRNA-transfected cells","MDA5 [3]; 30 μM, 48 h",promoted the expression
same,"effects on MDA5 protein expression, MV-infected cells",MDA5 [3]; [13],limited
same,IFN-λ1 expression level (RT-qPCR),IFN-λ1; ssRNA (60 ng/well),14±3
same,IFN-λ1 expression level (RT-qPCR),IFN-λ1; ssRNA (120 ng/well),130±10
same,IFN-λ1 expression level (RT-qPCR),IFN-λ1; ssRNA: None,1.9±0.6
same,induction of the ISRE-luciferase gene (compound alone),[2],induced
same,IC50,[4],1.4 ± 0.2 µM
same,OASL expression level (RT-qPCR),OASL; ssRNA (60 ng/well),17±3
same,OASL expression level (RT-qPCR),OASL; ssRNA (120 ng/well),111±21
same,OASL expression level (RT-qPCR),OASL; ssRNA: None,3±2
same,"RIG-I protein expression, ssRNA-transfected cells","RIG-I [5]; 30 μM, 48 h",promoted the expression
same,"RIG-I protein expression, MV-infected cells",RIG-I [5]; [13],boosted
same,IFN activity in supernatants of cells treated with compound alone,IFN biological activity,did not show any IFN activity
same,cellular response to MV infection (ISRE-luciferase),[6],efficiently boosted
same,effect of DHO on viral replication in treated cells,"MV-Luc [7]; DD778 10 μM, DHO 3 mM",no effect
same,effect of uridine and orotate on viral replication in treated cells,"MV-Luc [7]; DD778 10 μM, uridine 130 μM, orotate 3 mM",restore viral replication
same,RIG-I expression level (RT-qPCR),RIG-I [8]; ssRNA (60 ng/well),12±5
same,RIG-I expression level (RT-qPCR),RIG-I [8]; ssRNA (120 ng/well),57±9
same,RIG-I expression level (RT-qPCR),RIG-I [8]; ssRNA: None,1.3±0.4
same,intracellular UDP-Gal level,[9]; HEK-293T cells treated 24 h,collapsed
same,intracellular UDP-GalNac level,[9]; HEK-293T cells treated 24 h,maintained at high levels
same,purine levels (A and G),[9]; HEK-293T cells treated 24 h,unaffected
same,uridine (U) and cytidine (C) levels,[9]; HEK-293T cells treated 24 h,collapsed
same,IFN-λ2/3 expression level (RT-qPCR),IFN-λ2/3; ssRNA (60 ng/well),7±1
same,IFN-λ2/3 expression level (RT-qPCR),IFN-λ2/3; ssRNA (120 ng/well),55±12
same,IFN-λ2/3 expression level (RT-qPCR),IFN-λ2/3; ssRNA: None,1.4±0.7
same,MDA5 expression level (RT-qPCR),MDA5 [10]; ssRNA (60 ng/well),5±1
same,MDA5 expression level (RT-qPCR),MDA5 [10]; ssRNA (120 ng/well),23±2
same,MDA5 expression level (RT-qPCR),MDA5 [10]; ssRNA: None,1.1±0.1
same,antiviral potency relative to DD363,MV-Luc [1],2- to 9 fold
same,IC50,MV-Luc [1],2.9 ± 0.3 µM
same,"expression of IFN-β, IFN-λ1, IFN-λ2/3, and IP-10 in supernatants, ssRNA-stimulated cells","[11]; 30 μM, 120 ng ssRNA, 48 h",increased the expression
same,"IFN-β expression in supernatants, MV-infected cells",[11]; [13],not statistically enhanced
same,"expression of IFN-λ1, IFN-λ2/3, and IP-10 in supernatants, MV-infected cells",[11]; [13],efficiently increased
same,IFN-α4 expression level (RT-qPCR),IFN-α4; ssRNA (60 ng/well),1.3±0.7
same,IFN-α4 expression level (RT-qPCR),IFN-α4; ssRNA (120 ng/well),1.4±0.6
same,IFN-α4 expression level (RT-qPCR),IFN-α4; ssRNA: None,1.3±0.7
Cn1cc(C2c3c(c4cc(Cl)ccc4oc3=O)OC2[N+](=O)[O-])c2ccccc21 (centres unmarked) [JP10],CC50 at 24 h,in vitro,> 50 µM
same,IC50,MV-Luc [1],> 50 µM
"O=c1oc2ccccc2c(O)c1Cc1c(O)c2ccccc2oc1=O [Dicoumarol, dicoumarol, reference compound]",induction of the ISRE-luciferase gene (compound alone),[2],induced
same,IC50,DHODH,6.6 µM
same,antiviral effect when culture medium is supplemented with uridine,MV-Luc [7]; uridine 130 μM,fully reversed
same,IC50,MV-Luc [1],12 ± 0.3 µM
O=c1oc2ccccc2c2c1C(c1c[nH]c3ccccc13)CO2 (centres unmarked) [JP42],CC50 at 24 h,in vitro,> 50 µM
same,IC50,MV-Luc [1],16 ± 3 µM
"C/C(O)=C(\C#N)C(=O)Nc1ccc(C(F)(F)F)cc1 [Teriflunomide, teriflunomide]",IC50,MV-Luc [12],5 µM
O=c1oc2ccccc2c(O)c1C(C[N+](=O)[O-])c1c[nH]c2ccccc12 (centres unmarked) [JP39],CC50,in vitro,> 50 µM
same,IC50,MV-Luc [1],> 50 µM
"Cc1c(-c2ccc(-c3ccccc3F)cc2)nc2ccc(F)cc2c1C(=O)O [Brequinar, brequinar, reference compound]",induction of the ISRE-luciferase gene (compound alone),[2],induced
same,inhibition of de novo pyrimidine biosynthesis,"[9]; submicromolar concentrations, 24 h",inhibited
same,IC50,MV-Luc [12],0.04 µM
Cn1c(=O)c2c(c3ccccc31)OC([N+](=O)[O-])C2c1c[nH]c2ccccc12 (centres unmarked) [DD787],CC50 at 24 h,in vitro,> 50 µM
same,IC50,MV-Luc [1],16 ± 3 µM
Cc1[nH]c2ccccc2c1C1c2c(c3cc(Cl)ccc3oc2=O)OC1[N+](=O)[O-] (centres unmarked) [JP25],CC50 at 24 h,in vitro,> 50 µM
same,IC50,MV-Luc [1],47 ± 7 µM
